According to patent publication US4245106A, “Process for the preparation of 1-alkyl-3-aryl-4-pyrazolecarboxylates” (Monsanto Company, priority 1979, dated 1981):

Assays:
Assay type in all cases: in vivo
[1] = test system: Barnyard grass; test: pre-emergent herbicidal activity test
Method: (§1) Table II summarizes results of tests conducted to determine the pre-emergent as well as the post-emergent herbicidal activity of the compounds. The pre-emergent test was conducted as follows:
(§2) A good grade of top soil was placed in aluminum pans and compacted to a depth of three-eighths to one-half inch from the top of the pan. On the top of the soil was placed a predetermined number of seeds or vegetative propagules of various plant species. The soil required to level fill the pans after seeding or adding vegetative propagules was weighed into a pan. A known amount of the active ingredient applied in a solvent or as a wettable powder and the soil were thoroughly mixed, and used as a cover layer for prepared pans. After treatment the pans were moved into a greenhouse bench where they were watered from below as needed to give adequate moisture for germination and growth.
(§3) A herbicial rating code was used to signify the extent of phytotoxicity of each species. The rating are defined as follows: […]

[2] = test system: Bromus tectorum; test: pre-emergent herbicidal activity test
Method: as §1, §2, §3

[3] = test system: Canada Thistle; test: pre-emergent herbicidal activity test
Method: as §1, §2, §3

[4] = test system: Cocklebur; test: pre-emergent herbicidal activity test
Method: as §1, §2, §3

[5] = test system: Johnsongrass; test: pre-emergent herbicidal activity test
Method: as §1, §2, §3

[6] = test system: Lambsquarter; test: pre-emergent herbicidal activity test
Method: as §1, §2, §3

[7] = test system: Morningglory; test: pre-emergent herbicidal activity test
Method: as §1, §2, §3

[8] = test system: Nutsedge; test: pre-emergent herbicidal activity test
Method: as §1, §2, §3

[9] = test system: Quackgrass; test: pre-emergent herbicidal activity test
Method: as §1, §2, §3

[10] = test system: Smartweed; test: pre-emergent herbicidal activity test
Method: as §1, §2, §3

[11] = test system: Velvetleaf; test: pre-emergent herbicidal activity test
Method: as §1, §2, §3

[12] = test system: Barnyard grass; test: post-emergent herbicidal activity test
Method: (§4) The post-emergent tests were conducted as follows. The active ingredients are applied in spray form to two or three-week old specimens of various plant species. The spray, a solution or wettable powder suspension containing the appropriate rate of active ingredient to give the desired test rate and a surfactant, is applied to the plants. The treated plants are placed in a greenhouse and unless otherwise noted approximately four weeks later the effects are observed and recorded.

[13] = test system: Bromus tectorum; test: post-emergent herbicidal activity test
Method: as §4

[14] = test system: Canada Thistle; test: post-emergent herbicidal activity test
Method: as §4

[15] = test system: Cocklebur; test: post-emergent herbicidal activity test
Method: as §4

[16] = test system: Johnsongrass; test: post-emergent herbicidal activity test
Method: as §4

[17] = test system: Lambsquarter; test: post-emergent herbicidal activity test
Method: as §4

[18] = test system: Morningglory; test: post-emergent herbicidal activity test
Method: as §4

[19] = test system: Nutsedge; test: post-emergent herbicidal activity test
Method: as §4

[20] = test system: Quackgrass; test: post-emergent herbicidal activity test
Method: as §4

[21] = test system: Smartweed; test: post-emergent herbicidal activity test
Method: as §4

[22] = test system: Velvetleaf; test: post-emergent herbicidal activity test
Method: as §4

[23] = 11.2 Kg/Ha, approximately 28 days after seeding and treating
[24] = 11.2 Kg/Ha, approximately four weeks later
[25] = *11.2 Kg/Ha, observed approximately 14 days after treatment
Note: ranges in brackets are in %.

CCC(C)OC(=O)c1cn(C)nc1-c1cccc(C(F)(F)F)c1 (stereo not shown) [Example 20]
Pre-Emergent herbicidal rating, K Barnyard grass [1, 23]: 3 (75-100)
Pre-Emergent herbicidal rating, J Bromus tectorum [2, 23]: 0 (0-24)
Pre-Emergent herbicidal rating, A Canada Thistle [3, 23]: 0 (0-24)
Pre-Emergent herbicidal rating, B Cocklebur [4, 23]: 0 (0-24)
Pre-Emergent herbicidal rating, I Johnsongrass [5, 23]: 0 (0-24)
Pre-Emergent herbicidal rating, E Lambsquarter [6, 23]: 3 (75-100)
Pre-Emergent herbicidal rating, D Morningglory [7, 23]: 0 (0-24)
Pre-Emergent herbicidal rating, G Nutsedge [8, 23]: 0 (0-24)
Pre-Emergent herbicidal rating, H Quackgrass [9, 23]: 0 (0-24)
Pre-Emergent herbicidal rating, F Smartweed [10, 23]: 1 (25-49)
Pre-Emergent herbicidal rating, C Velvetleaf [11, 23]: 0 (0-24)
Post-Emergent herbicidal rating, K Barnyard grass [12, 24]: 0 (0-24)
Post-Emergent herbicidal rating, J Bromus tectorum [13, 24]: 0 (0-24)
Post-Emergent herbicidal rating, A Canada Thistle [14, 24]: 1 (25-49)
Post-Emergent herbicidal rating, B Cocklebur [15, 24]: 1 (25-49)
Post-Emergent herbicidal rating, I Johnsongrass [16, 24]: 1 (25-49)
Post-Emergent herbicidal rating, E Lambsquarter [17, 24]: 2 (50-74)
Post-Emergent herbicidal rating, D Morningglory [18, 24]: 0 (0-24)
Post-Emergent herbicidal rating, G Nutsedge [19, 24]: 0 (0-24)
Post-Emergent herbicidal rating, H Quackgrass [20, 24]: 0 (0-24)
Post-Emergent herbicidal rating, F Smartweed [21, 24]: 0 (0-24)
Post-Emergent herbicidal rating, C Velvetleaf [22, 24]: 1 (25-49)

CCCCCCOC(=O)c1cn(C)nc1-c1cccc(C(F)(F)F)c1 [Example 21]
Pre-Emergent herbicidal rating, K Barnyard grass [1, 25]: 1 (25-49)
Pre-Emergent herbicidal rating, J Bromus tectorum [2, 25]: 0 (0-24)
Pre-Emergent herbicidal rating, A Canada Thistle [3, 25]: 0 (0-24)
Pre-Emergent herbicidal rating, B Cocklebur [4, 25]: 0 (0-24)
Pre-Emergent herbicidal rating, I Johnsongrass [5, 25]: 0 (0-24)
Pre-Emergent herbicidal rating, E Lambsquarter [6, 25]: 0 (0-24)
Pre-Emergent herbicidal rating, D Morningglory [7, 25]: 0 (0-24)
Pre-Emergent herbicidal rating, G Nutsedge [8, 25]: 0 (0-24)
Pre-Emergent herbicidal rating, H Quackgrass [9, 25]: 0 (0-24)
Pre-Emergent herbicidal rating, F Smartweed [10, 25]: 0 (0-24)
Pre-Emergent herbicidal rating, C Velvetleaf [11, 25]: 0 (0-24)
Post-Emergent herbicidal rating, K Barnyard grass [12, 25]: 1 (25-49)
Post-Emergent herbicidal rating, J Bromus tectorum [13, 25]: 0 (0-24)
Post-Emergent herbicidal rating, A Canada Thistle [14, 25]: 1 (25-49)
Post-Emergent herbicidal rating, B Cocklebur [15, 25]: 1 (25-49)
Post-Emergent herbicidal rating, I Johnsongrass [16, 25]: 1 (25-49)
Post-Emergent herbicidal rating, E Lambsquarter [17, 25]: 2 (50-74)
Post-Emergent herbicidal rating, D Morningglory [18, 25]: 1 (25-49)
Post-Emergent herbicidal rating, G Nutsedge [19, 25]: 0 (0-24)
Post-Emergent herbicidal rating, H Quackgrass [20, 25]: 0 (0-24)
Post-Emergent herbicidal rating, F Smartweed [21, 25]: 1 (25-49)
Post-Emergent herbicidal rating, C Velvetleaf [22, 25]: 1 (25-49)

Cn1cc(C(=O)OCCOc2ccccc2)c(-c2cccc(C(F)(F)F)c2)n1 [Example 22]
Pre-Emergent herbicidal rating, K Barnyard grass [1, 25]: 0 (0-24)
Pre-Emergent herbicidal rating, J Bromus tectorum [2, 25]: 0 (0-24)
Pre-Emergent herbicidal rating, A Canada Thistle [3, 25]: 3 (75-100)
Pre-Emergent herbicidal rating, B Cocklebur [4, 25]: 0 (0-24)
Pre-Emergent herbicidal rating, I Johnsongrass [5, 25]: 0 (0-24)
Pre-Emergent herbicidal rating, E Lambsquarter [6, 25]: 3 (75-100)
Pre-Emergent herbicidal rating, D Morningglory [7, 25]: 1 (25-49)
Pre-Emergent herbicidal rating, G Nutsedge [8, 25]: 0 (0-24)
Pre-Emergent herbicidal rating, H Quackgrass [9, 25]: 0 (0-24)
Pre-Emergent herbicidal rating, F Smartweed [10, 25]: 0 (0-24)
Pre-Emergent herbicidal rating, C Velvetleaf [11, 25]: 0 (0-24)
Post-Emergent herbicidal rating, K Barnyard grass [12, 25]: 0 (0-24)
Post-Emergent herbicidal rating, J Bromus tectorum [13, 25]: 0 (0-24)
Post-Emergent herbicidal rating, A Canada Thistle [14, 25]: 1 (25-49)
Post-Emergent herbicidal rating, B Cocklebur [15, 25]: 0 (0-24)
Post-Emergent herbicidal rating, I Johnsongrass [16, 25]: 0 (0-24)
Post-Emergent herbicidal rating, E Lambsquarter [17, 25]: 0 (0-24)
Post-Emergent herbicidal rating, D Morningglory [18, 25]: 0 (0-24)
Post-Emergent herbicidal rating, G Nutsedge [19, 25]: 0 (0-24)
Post-Emergent herbicidal rating, H Quackgrass [20, 25]: 0 (0-24)
Post-Emergent herbicidal rating, F Smartweed [21, 25]: 0 (0-24)
Post-Emergent herbicidal rating, C Velvetleaf [22, 25]: 0 (0-24)

CCSCCOC(=O)c1cn(C)nc1-c1cccc(C(F)(F)F)c1 [Example 23]
Pre-Emergent herbicidal rating, K Barnyard grass [1, 25]: 1 (25-49)
Pre-Emergent herbicidal rating, J Bromus tectorum [2, 25]: 1 (25-49)
Pre-Emergent herbicidal rating, A Canada Thistle [3, 25]: 0 (0-24)
Pre-Emergent herbicidal rating, B Cocklebur [4, 25]: 0 (0-24)
Pre-Emergent herbicidal rating, I Johnsongrass [5, 25]: 0 (0-24)
Pre-Emergent herbicidal rating, E Lambsquarter [6, 25]: 3 (75-100)
Pre-Emergent herbicidal rating, D Morningglory [7, 25]: 1 (25-49)
Pre-Emergent herbicidal rating, G Nutsedge [8, 25]: 0 (0-24)
Pre-Emergent herbicidal rating, H Quackgrass [9, 25]: 0 (0-24)
Pre-Emergent herbicidal rating, F Smartweed [10, 25]: 1 (25-49)
Pre-Emergent herbicidal rating, C Velvetleaf [11, 25]: 1 (25-49)
Post-Emergent herbicidal rating, K Barnyard grass [12, 25]: 1 (25-49)
Post-Emergent herbicidal rating, J Bromus tectorum [13, 25]: 0 (0-24)
Post-Emergent herbicidal rating, A Canada Thistle [14, 25]: 1 (25-49)
Post-Emergent herbicidal rating, B Cocklebur [15, 25]: 1 (25-49)
Post-Emergent herbicidal rating, I Johnsongrass [16, 25]: 0 (0-24)
Post-Emergent herbicidal rating, E Lambsquarter [17, 25]: 2 (50-74)
Post-Emergent herbicidal rating, D Morningglory [18, 25]: 1 (25-49)
Post-Emergent herbicidal rating, G Nutsedge [19, 25]: 0 (0-24)
Post-Emergent herbicidal rating, H Quackgrass [20, 25]: 1 (25-49)
Post-Emergent herbicidal rating, F Smartweed [21, 25]: 1 (25-49)
Post-Emergent herbicidal rating, C Velvetleaf [22, 25]: 1 (25-49)
